Measured values published in PMC4432651, “Dynamic interplay between catalytic and lectin domains of GalNAc-transferases modulates protein O-glycosylation” (Nature Communications, 2015).
Where a SMILES comes first, the peptide text is derived from it. The star is where a group is joined. αGalNAc = CC(=O)N[C@@H]1[C@@H](O)[C@@H](O)[C@@H](CO)O[C@@H]1*

Tests used:
[1] = target: T1, GalNAc-T2 (Homo sapiens, UniProt Q10471); assay: SAXS with Ensemble Optimization Method: GalNAc-T2 conformations/oligomers with ligands; conditions: GalNAc-T2 5 mg/ml, 25 mM TRIS pH 7.5, 10 mM MnCl2, 10 °C; for Dmax: maximum intramolecular distance, GNOM; on all read-outs here: values in Å
T1 construct: made in house
T1 sequence (Q10471 75-571 limits assumed): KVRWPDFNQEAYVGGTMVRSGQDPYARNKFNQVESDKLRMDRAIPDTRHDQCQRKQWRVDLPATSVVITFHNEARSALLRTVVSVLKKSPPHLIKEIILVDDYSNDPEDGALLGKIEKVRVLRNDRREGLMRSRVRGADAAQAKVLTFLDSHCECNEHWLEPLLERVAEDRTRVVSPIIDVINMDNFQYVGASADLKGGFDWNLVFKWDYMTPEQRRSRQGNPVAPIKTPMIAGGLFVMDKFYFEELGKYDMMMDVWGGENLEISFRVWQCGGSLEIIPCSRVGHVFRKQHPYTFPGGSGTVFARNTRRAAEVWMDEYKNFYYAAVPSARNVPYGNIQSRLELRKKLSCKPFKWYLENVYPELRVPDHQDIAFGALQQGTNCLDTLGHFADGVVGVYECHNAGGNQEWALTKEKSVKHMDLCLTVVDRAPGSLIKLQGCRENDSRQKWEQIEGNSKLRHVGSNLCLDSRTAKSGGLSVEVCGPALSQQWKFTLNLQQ
Experimental: SAXS measurements were performed at the European Molecular Biology Laboratory on the storage ring PETRA-III (DESY-Hamburg) on the P12 beamline equipped with a robotic sample changer and a PILATUS-2M. The analysis of the SAXS data was performed by using the EOM[31]. Additional details are in Supplementary Methods. […]
Small-angle X-ray scattering (SAXS) and data analysis
All experiments were performed in a buffer consisting of 25 mM TRIS pH 7.5, 10 mM MnCl2. The first set of experiments contained three different protein concentrations: 10 mg/ml (180 µM), 5 mg/ml (90 µM), 2.5 mg/ml (45 µM) and 1 […]
mg/ml (18 µM). The protein was measured alone and in the presence of ten times molar excess of UDP, UDP-GalNAc, UDP-EA2 peptide, MUC5AC-13, UDP-MUC5AC-13, MUC5AC, and UDP-MUC5AC. The second set of experiments was carried out with the protein concentration fixed at 5 mg/ml, and increasing concentrations of UDP (450 µM, 900 µM, 1.8 mM, 4.5 mM and 9 mM). The concentration of MUC5AC-13 was also changed as follows: 1 mM, 5 mM and 7.5 […]
Synchrotron SAXS measurements were performed at the European Molecular
Biology Laboratory (EMBL) on the storage ring PETRA-III (DESY-Hamburg) on the P12 beamline equipped with a robotic sample changer and a PILATUS-2M. The sample-detector distance was 3.1 m. The scattering intensity, I(s), was recorded at 10 °C in a momentum transfer range of 0.007<s<0.444 Å -1, where s = (4πsinθ )/λ , 2θ is the scattering angle, and λ = 1.24 Å is the X-ray wavelength. Twenty consecutive 0.05 second measurements were performed for protein samples and buffers to monitor for radiation damage that were subsequently averaged (no systematic radiation effects were observed). Buffer scattering profiles were subtracted from the sample ones using standard procedures 8. The values of the forward scattering, I(0), and radii of gyration, Rg, were calculated from the experimental SAXS patterns using Guinier’s approximation (Supplementary Fig. 4 and 5), I(s) = I(0)exp(-s2Rg2/3), which is valid in the range sRg < 1.3.
Structural analysis of the SAXS data was performed using the Ensemble Optimization Method (EOM)9. A pool of 10,000 monomeric structures of GalNac-T2 was constructed with the program RanCh9 by connecting three-dimensional structures of the catalytic and the lectin domains, extracted from the crystallographic structure 2FFU, with a flexible linker of 12 residues with random coil conformations. To […]
properly describe the data, these monomeric ensembles were enriched with 100 equivalent curves corresponding to one dimeric arrangement. As we tested three dimers, we built three different ensembles with the same 10,000 monomeric conformations and 100 copies of each one of the dimers. The three different dimers used for SAXS are shown in Supplementary Fig. 3c and correspond to three different crystal structures obtained under different conditions.
The scattering profiles of all members of the pool were computed with the program CRYSOL using standard parameters10. The pool of structures/profiles was submitted to the genetic algorithm (GA) with the aim to select a subensemble of 50 structures/curves with the capacity to collectively describe the experimental SAXS […]
was repeated 200 times starting from different randomly selected subensembles, and the resulting solutions were analysed together. The same pool was used to describe all the measured data. Results were quantitatively analysed by displaying the Rg distributions of the selected ensembles and the relative population of monomeric and dimeric species.
Three different dimeric arrangements were introduced individually in the pool. In all three cases the dimers display similar contacts between the lectin domains and the lectin domain of one monomer with the catalytic domain of a second monomer (Supplementary Fig. 3c). We can distinguish the crystallographic dimers by the buried area parameter inferred from the PISA server. The dimers present in the crystal structure of GalNAc-T2-UDP complex (PDB entry 2FFV) are the most compact ones […]

[2] = target: T1, GalNAc-T2; assay: Time-lapse AFM of single GalNAc-T2 molecules with ligands; conditions: in the presence of Mn+2; GalNAc-T2 2.0 nM on mica, UDP, UDP-GalNAc and MnCl2 20.0 nM, PBS pH 7.4, 20 °C
Experimental: AFM measurements were performed using a MultiMode 8 AFM system (Bruker). […] Additional details are in Supplementary Methods. […]
simulations were performed with the acceptor amino acid – UDPGalNAc distance and the RMSD of the Cα peptide carbon atoms as collective variables.
The values of the height and width of the Gaussian-like biasing potential were selected as 1.0 kcal·mol -1 and 0.25 Å, respectively. A temperature window of ΔT = 25000 K for the well-tempered algorithm was used together with a deposition time of 1 ps. The simulation was continued until the system completely explored the free energy landscape several times which, in terms of the simulation time, corresponds to approximately 100 ns for each metadynamics run.
Atomic Force Microscopy Imaging
In Tapping Mode image operation the cantilever driven by a piezoelectric actuator vibrates near its resonance frequency. Upon approaching the sample, the tip briefly touches the surface at the bottom of each swing, resulting in a decrease in oscillation amplitude. […]
AFM scanning requires the sample be immobilized on a nanoflat surface not to be swept away. […] The concentration of the protein incubated on the mica sheets was suitable to get isolated features that could be analyzed individually. […]
GalNAc-T2 presents a net positive charge at the working pH conditions due to its theoretical isoelectric point of 8.3. The immobilization of enzymes on mica was previously evaluated observing clearly they preserve the enzymatic activity5.
To determine how the ligands affect the conformational dynamics of GalNAc-T2, the enzyme was also incubated with ligands for 10 min under mild stirring at room temperature. […] AFM images were further analyzed by using the WSxM software6. […] At least 10 images of 10 different areas of 500 nm2 were analyzed for every sample and environment. Furthermore, each feature or associate was analyzed in detail with the zoom function of the WSxM program, performed without losing image information and or the discarding of artifacts. […]

[3] = target: T1, GalNAc-T2; assay: X-ray crystal structures of GalNAc-T2 complexes; format: binding; conditions: co-crystallization with UDP and Mn+2; flexible loop conformation
Experimental: In all cases, crystals were grown by hanging drop vapour diffusion at 18 °C. […] The protein solution consisting of 3.5 mg ml^−1 of GalNAcT-2, 5 mM UDP, 5 mM MnCl2 and 6 mM MUC5AC-13 in the same buffer described above was mixed with the precipitant solution containing 1.6 M ammonium sulfate, 100 mM sodium chloride and 100 mM HEPES (pH 7). The crystals were cryoprotected in saturated lithium sulfate and frozen in a nitrogen gas stream cooled to 100 K.
All data were processed and scaled using the XDS package[34] and CCP4 software. The crystal structures were solved by molecular replacement with Phaser[35] and using the PDB entry 4D0T as the template. Initial phases were further improved by cycles of manual model building in Coot[36] and refinement with REFMAC5 (ref. [37]). The AUs of the tetragonal crystals contain 1 molecule of GalNAc-T2 (Fig. 1). Coordinates and structure factors have been deposited in the Worldwide Protein Data Bank (wwPDB, and see Table 1 for the pdb codes).

[4] = target: T1, GalNAc-T2; assay: Tryptophan fluorescence spectroscopy, dissociation constants of GalNAc-T2 against peptides; format: binding; conditions: Kd in the absence of UDP/Mn+2 compared with presence of the nucleotide
Experimental: All experiments were carried out in a Cary Eclipse spectrofluorometer (Varian) at 25 °C with GalNAc-T2 at 1 μM, and concentrations of peptides varying from 1 to 500 μM in 25 mM Tris, 150 mM NaCl, pH 7.5. The same experiments were also performed in the same buffer but containing 400 μM UDP and 1 mM MnCl2. Fluorescence emission spectra were recorded in the 300–400 nm range with an excitation wavelength of 280 nm, with slit width of 5 nm. The data analysis was performed in Prism (GraphPad software) considering a model with a single binding site (see equation (1), where F0 is the intrinsic fluorescence of the enzyme in the absence of quencher (Q), F1 is the observed fluorescence at a given quencher concentration, fa is the fractional degree of fluorescence and Kd is the dissociation constant.

[5] = ligand molar ratio GalNAc-T2:ligand 1:10

Row | Kd in the absence vs presence of UDP/Mn+2 [4] | Rg (Guinier) ([1]; peptide + UDP (1:10)) | Rg from p(r) (GNOM) ([1]; peptide + UDP (1:10)) | Dmax ([1]; peptide + UDP (1:10)) | Compound | Rg from p(r) (GNOM) ([1]; ligand molar ratio 1:10) | Dmax ([1]; ligand molar ratio 1:10) | Rg (Guinier) [1, 5] | conformational states of GalNAc-T2 observed [2] | form of GalNAc-T2 bound in crystal [3]
1 | – | – | – | – | CC(=O)N[C@H]1[C@@H](OP(=O)(O)OP(=O)(O)OC[C@H]2O[C@@H](n3ccc(=O)[nH]c3=O)[C@H](O)[C@@H]2O)O[C@H](CO)[C@H](O)[C@@H]1O [UDP-GalNAc, uridine diphosphate N-acetylgalactosamine, reference compound] | 34.6 Å | 124 Å | 34.7±0.4 Å | either the very compact or the compact structure | –
2 | – | – | – | – | CC(=O)N[C@H]1[C@@H](O[C@H](C)[C@H](NC(=O)[C@@H](NC(=O)[C@H](CO)NC(=O)[C@@H](NC(=O)[C@@H](NC(=O)[C@@H]2CCCN2C(=O)[C@@H](NC(=O)[C@@H]2CCCN2C(=O)[C@H](CO)NC(=O)[C@@H]2CCCN2C(=O)[C@@H](NC(=O)[C@@H](NC(=O)CN)[C@@H](C)O)[C@@H](C)O[C@H]2O[C@H](CO)[C@H](O)[C@H](O)[C@H]2NC(C)=O)C(C)C)[C@@H](C)O)[C@@H](C)O)[C@@H](C)O)C(=O)N[C@@H](CO)C(=O)N[C@@H](C)C(N)=O)O[C@H](CO)[C@H](O)[C@@H]1O [MUC5AC-3-13] (H-GTT(αGalNAc)PSPVPTTSTT(αGalNAc)SA-NH2; N-terminus assumed) | – | – | – | – | bound to the inactive form of GalNAc-T2
3 | fourfold better | 32.0±0.2 Å | 33.3 Å | 120 Å | CC(=O)NCC(=O)N[C@H](C(=O)N[C@H](C(=O)N1CCC[C@H]1C(=O)N[C@@H](CO)C(=O)N1CCC[C@H]1C(=O)N[C@H](C(=O)N1CCC[C@H]1C(=O)N[C@H](C(=O)N[C@H](C(=O)N[C@@H](CO)C(=O)N[C@H](C(=O)N[C@H](C(=O)N[C@@H](CO)C(=O)N[C@@H](C)C(N)=O)[C@@H](C)O)[C@@H](C)O)[C@@H](C)O)[C@@H](C)O)C(C)C)[C@@H](C)O)[C@@H](C)O [MUC5AC] (Ac-GTTPSPVPTTSTTSA-NH2; N-terminus assumed) | 33.4 Å | 120 Å | 32.3±0.3 Å | – | –
